From patent US5279956A, “Activated protein C polypeptides and anti-peptide antibodies, diagnostic methods and systems for inhibiting activated protein C” (The Scripps Research Institute, priority 1991, dated 1994)
No end group written: not given here.

What was measured:
anti-(390-404) antibody [1] = test: Cross-competition ELISA: anti-(390-404) antibody binding to immobilized PC with fluid-phase competitors; parameters: species or system rabbit; settings: fluid-phase competitor
Protocol: FIG. 1 illustrates anti-(390-404) antibody binding to immobilized Protein C (PC) in the presence of fluid-phase PC, peptide-(390-404), -(404-390) and -K395A-(390-404). […] Before admixing 2 μg/ml anti-(390-404) antibody to PC-coated wells, the anti-(390-404) antibody was admixed with 0 to 200 μg/ml of either PC, 0 to 1000 μM peptide (-390-404), 0 to 1000 μM peptide-(404-390), or 0-200 μM peptide-K395A-(390-404) for 30 minutes at 37° C. Following biotinylated-goat-anti-rabbit-IgG and streptavidin-alkaline-phosphatase immunoreactions as described in Example 2c, bound anti-(390-404) antibody was detected by addition of 5 milligrams/milliliter (mg/ml) p-nitrophenylphosphate in 0.1M diethanolamine at pH 9.6 followed by measuring of the change in absorbance at 405 nm over time. The amount of anti-(390-404) specifically bound to PC coated wells in the absence of any competing protein was defined as 100%. […]
The specificity of anti-(390-404) antibody for peptide-(390-404) and PC was confirmed by cross-competition binding experiments. […] Bound anti-(390-404) antibody to immobilized PC in the presence of competitors was detected as described in Example 2c.

anti-(390-404) antibody [2] = test: Solid-phase ELISA: binding of anti-(390-404) antibody to immobilized peptides and PC; parameters: species or system rabbit
Protocol: To determine the immunospecificity of the rabbit antisera obtained in Example 2b, ELISA assays were performed. Briefly, 50 μl of either 50 μM peptide-(390-404) prepared in Example 1 or 10 μg/ml of PC or APC prepared in Example 2c in a buffer consisting of 0.05M sodium carbonate (Na2 CO3) and 0.02% NaN3 at pH 9.0 were admixed into the wells of microtiter plates. The plates were maintained at 37° C. for one hour to permit the antigens to become operatively affixed to the well walls. After washing the antigen-coated wells with TBS, the wells were blocked with 250 μl/well of 10% bovine serum albumin (BSA) (Sigma) in TBS for one hour at 22° C. The blocking solution was then removed and the wells were subsequently washed five times with 250 μl/well of maintenance buffer (0.05M Tris-HCl, 0.1M NaCl, 0.02% NaN3, 1 mg/ml BSA, 5 mM CaCl2, 0.01% Tween 20 at pH 7.4). Fifty μl of rabbit non-immune or specific antiserum serially diluted in maintenance buffer was then admixed to the washed wells and maintained for one hour at 37° C. to allow formation of a solid liquid phase immunoreaction products. The wells were then washed three times with maintenance buffer followed by admixture of 50 μl of 2.0 μg/ml of secondary antibody (polyclonal biotinylated goat-anti-rabbit-IgG) (Pierce Biochemicals) diluted in maintenance buffer to each well for the detection of immunoreactant products. The plates were maintained for 1 hour at 37° C. after which time the secondary antibody solution was removed. After washing the wells as described above, 50 μl of 2.0 μg/ml streptavidin-alkaline-phosphatase (Pierce Biochemicals) in maintenance buffer was admixed into each well and maintained for 30 minutes at 37° C. Detection of specific immunoreaction products was obtained by admixture of 150 μl/well of 5 mg/ml p-nitrophenylphosphate (PNPP) (Pierce Biochemicals) in 0.1M diethanolamine and 0.02% NaN3 at pH 9.6 followed by measurement of the change in absorbance at 405 nm over time using the EL312 Microplate Bio-Kinetics Reader and the KinetiCalc Software Program (Biotek Instruments, Inc., Vt.). Non-specific binding was considered as the measured absorbance in 10% BSA blocked wells which served as negative controls without the preceding coating of a specific protein or peptide. Under the described conditions, non-specific binding never exceeded more than 5% of the specific binding.
The specificity of immunoaffinity purified anti-(390-404) antibody towards peptide-(390-404) and PC was evaluated by measuring the binding in solid-phase ELISA of the antibody to immobilized peptides including -(384-398), -(390-404), -(396-410), -(404-390), and -K395A-(390-404) listed in Table 1 with their corresponding SEQ ID NO, and to PC. […]

[3] = Solubility of peptide in buffer solutions; assay type: physicochemical; settings: concentrations higher than 36 μM
Protocol: Purified peptides were separately resuspended in distilled water to form a dissolved peptide solution at a final concentration of 2.5 mM. Subsequently, […] containing 0.05M Tris hydroxymethyl aminomethanehydrochloride (Tris-HCl) at pH 7.4 (TBS-Az) 0.1M sodium chloride (NaCl), 0.02% sodium azide (NaN3). The pH of the solution was checked, and if necessary, adjusted to pH 7.4 with titrated amounts of 1M Tris-base. For peptides that appeared to be not completely soluble at 2.5 mM in TBS-Az, the partially dissolved peptide suspensions separately were centrifuged at 13,000×g to pellet the insoluble material. The molar concentrations in the resultant individual supernatants were estimated from the absorbance at 280 nm and 257 nm, respectively, for peptide solutions containing aromatic amino acids using a molar extinction coefficient of 5,600 M^-1 cm^-1 for tryptophan and 1,400 M^-1 cm^-1 for tyrosine at 280 nm, using a molar extinction coefficient of 200 M^-1 cm^-1 for phenylalanine at 257 nm. Peptides without aromatic amino acids and poor solubility in aqueous solutions were not evaluated in this invention.

APC = biological target: T1, APC (Homo sapiens, UniProt P04070); test: APC anticoagulant activity, APTT and Xa-1-stage coagulation assays (mean or both); assay type: biochemical; settings: measured at 36 μM peptide
T1 construct: begins at amino acid residue position 158 and ends at 419; The light chain is 155 amino acid residues in length; tissue Factor IX concentrate from Immuno AG, Vienna; thrombin from Enzyme Research Laboratories
Protocol: The effect of the synthetic peptides on APC anticoagulant activity were determined using the APTT assay in the presence of either normal citrate anticoagulated plasma (NHP) or protein S depleted plasma (PSDP). The assays were performed essentially as described. See Marlar et al., Blood, 59:1067-1072 […]; Suzuki et al., J. Biol. Chem., 258:163-168 (1983); Gruber et al., Blood, 73:639-642 (1989); Ohlin et al., Biochem., 29:644-651 (1990). NHP was purchased from George King Bio-Medical, Inc. (Overland Park, Kans.). PSDP was prepared from a normal human citrate-anticoagulated plasma pool from ten healthy donors. Protein S was immunodepleted from the NHP by immunoaffinity chromatography of NHP over an anti-protein S antibody column to form PSDP. The anti-protein S antibody column was prepared by coupling 100 mg of a monoclonal, high-affinity, calcium-independent anti-PS antibody, designated S7, to 30 ml of CNBr-activated Sepharose 4B (Pharmacia) as described in Example 2c1).
For the APTT assay, APC was prepared as described in Example 2c2). […] The concentration of the APC used in the assay was initially optimized with respect to the sensitivity of the assay towards APC-induced prolongation of clotting time compared to clotting time without APC.
Once the optimal concentration of APC was determined, peptides from Table 2 were then separately admixed for a final concentration of 500 μM with 10 nM APC in 100 μl of TBS-BSA at pH 7.4 to form peptide-APC admixtures. The resulting admixtures were maintained for seven minutes at 37° C. Separate aliquots of peptides maintained under the same conditions in the absence of APC served as controls for the inhibitory effect of synthetic peptides on APC anticoagulant activity. After the maintenance period, 100 μl of NHP and 100 μl APTT-reagent Thrombosil (Ortho Diagnostics, Raritan, N.J.) were admixed into each peptide admixture and maintained for 200 seconds at 37° C. to form a pre-coagulation admixture. In some experiments, PSDP was used in the place of NHP to determine the effect of Protein S on the assay system. Coagulation was then initiated by the admixture of 100 μl of 30 mM CaCl2 in TBS prewarmed to 37° C. to each of the pre-coagulation admixtures. The time for clot formation was measured by an Electra 700 Automatic Coagulation Timer (Medical Laboratory Automation, Inc., Mount Vernon, N.Y.). Each peptide's effect was determined in duplicate.
The synthetic peptides listed in Table 4 are presented in the same order as listed in Table 2, i.e., are reproduced from Table 2. […] For peptides at a concentration of 500 μM that inhibited at least 50% of APC anticoagulant activity, analysis of dose-response was subsequently conducted. The column in Table 4 labeled "Inhibition of APC" represents the inhibition of APC anticoagulant activity measured with 500 μM peptide.
For testing the inhibition of the synthetic peptides on APC activity described above, Xa-1-stage coagulation assays were also performed as described. See Seegers et al., Thrombosis Res., 13:233-243 (1978); Marlar et al., supra; and Walker et al., J. Biol. Chem. 265:1484-1489 (1990).

T1 sequence (P04070 212-461): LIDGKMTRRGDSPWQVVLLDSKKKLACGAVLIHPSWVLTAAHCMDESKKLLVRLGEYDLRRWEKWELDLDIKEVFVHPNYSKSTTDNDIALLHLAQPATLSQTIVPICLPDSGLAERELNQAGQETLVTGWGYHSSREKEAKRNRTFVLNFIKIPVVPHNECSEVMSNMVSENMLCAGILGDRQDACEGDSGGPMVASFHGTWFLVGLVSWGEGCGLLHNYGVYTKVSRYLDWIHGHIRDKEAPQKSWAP
T1 sequence (P04070 43-197): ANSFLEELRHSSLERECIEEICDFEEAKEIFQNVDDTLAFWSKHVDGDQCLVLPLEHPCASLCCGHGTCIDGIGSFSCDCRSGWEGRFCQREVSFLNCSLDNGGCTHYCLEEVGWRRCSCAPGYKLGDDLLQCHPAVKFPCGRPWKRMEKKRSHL

competition with binding of anti-(390-404) antibody to immobilized PC (anti-(390-404) antibody [1]) | IC50 (anti-(390-404) antibody [1]; 2 μg/ml antibody, 10 μg/ml PC coated, read-out: Half-maximal inhibition of anti-(390-404) antibody binding to immobilized PC) [nM] | binding of anti-(390-404) antibody to immobilized peptide or PC (anti-(390-404) antibody [2]; solid-phase ELISA) | Anti-(390-404) (Absorbance/20 min.) (anti-(390-404) antibody [2]; wells coated with 50 μM peptide or 10 μg/ml PC, 2 μg/ml anti-(390-404) antibody, mean of duplicates) | inhibition at 36 µM (APC) [%] | Substance | solubility in buffer solutions [3]
competed significantly | ~9.2 | Significant immunoreactivity | 249 | – | Protein C: human Protein C zymogen immunoaffinity-purified from plasma factor IX concentrate | –
– | – | – | – | 23 | YGVYTAVSRYLDWIH-NH2 [peptide-K395A-(390-404), YGVYTAVSRYLDWIH] | limitations of solubility in buffer solutions
